Source: the supplement of paper PMC10883282
± gives the standard deviation of the averaged measurements.

Key:
Assay in all cases: relative viability vs DMSO control (72 h) (fraction); higher = more viable cells
SK-ES-1 = tested on: SK-ES-1
In short: (§1)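 ATPLite readings, expressed as percent growth and averaged over up to triplicate wells, provided relative viability. Before reading, sarcoma cell lines seeded in 384-well plates to reach 80–90% confluence received 2.5 µl of serially diluted compound after 24 h, from source plates of 10 mM to 0.0002 mM. Plates were held 72 h at 37 °C, 5% CO2, with 0.1% DMSO as vehicle and a 5 µM positive control. The data were rescaled to 1 for full and 0 for none.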

G401 = tested on: G401
In short: as §1

A204 = tested on: A204
In short: as §1

SW684 = tested on: SW684
In short: as §1

MES-SA = tested on: MES-SA
In short: as §1

VA-ES-BJ = tested on: VA-ES-BJ
In short: as §1

SK-LMS-1 = tested on: SK-LMS-1
In short: as §1

RD = tested on: RD
In short: as §1

KHOS-NP = tested on: KHOS-NP
In short: as §1

SYO-1 = tested on: SYO-1
In short: as §1

HS729 = tested on: HS729
In short: as §1

SW872 = tested on: SW872
In short: as §1

Compound: N#CCC1(n2cc(-c3ncnc4[nH]ccc34)cn2)CN(C2CCN(C(=O)c3ccnc(C(F)(F)F)c3F)CC2)C1 [Itacitinib]
- relative viability (SK-ES-1; 0.00017 µM): 1.04 ± 0.028
- relative viability (SK-ES-1; 0.00051 µM): 0.996 ± 0.068
- relative viability (SK-ES-1; 0.00152 µM): 0.977 ± 0.026
- relative viability (SK-ES-1; 0.00457 µM): 1.05 ± 0.033
- relative viability (SK-ES-1; 0.01372 µM): 0.979 ± 0.031
- relative viability (SK-ES-1; 0.04115 µM): 0.976 ± 0.049
- relative viability (SK-ES-1; 0.1235 µM): 1.01 ± 0.06
- relative viability (SK-ES-1; 0.3704 µM): 0.964 ± 0.035
- relative viability (SK-ES-1; 1.111 µM): 0.972 ± 0.043
- relative viability (SK-ES-1; 3.333 µM): 0.884 ± 0.039
- relative viability (SK-ES-1; 10 µM): 0.855 ± 0.039
- relative viability (G401; 0.00017 µM): 0.99 ± 0.013
- relative viability (G401; 0.00051 µM): 0.967 ± 0.076
- relative viability (G401; 0.00152 µM): 0.921 ± 0.012
- relative viability (G401; 0.00457 µM): 0.912 ± 0.039
- relative viability (G401; 0.01372 µM): 0.962 ± 0.059
- relative viability (G401; 0.04115 µM): 0.929 ± 0.023
- relative viability (G401; 0.1235 µM): 0.902 ± 0.071
- relative viability (G401; 0.3704 µM): 0.953 ± 0.079
- relative viability (G401; 1.111 µM): 0.931 ± 0.043
- relative viability (G401; 3.333 µM): 0.913 ± 0.046
- relative viability (G401; 10 µM): 0.862 ± 0.084
- relative viability (A204; 0.00017 µM): 1.02 ± 0.018
- relative viability (A204; 0.00051 µM): 1.02 ± 0.012
- relative viability (A204; 0.00152 µM): 1.03 ± 0.025
- relative viability (A204; 0.00457 µM): 1.02 ± 0.046
- relative viability (A204; 0.01372 µM): 1.04 ± 0.036
- relative viability (A204; 0.04115 µM): 1.03 ± 0.014
- relative viability (A204; 0.1235 µM): 1.01 ± 0.018
- relative viability (A204; 0.3704 µM): 0.959 ± 0.013
- relative viability (A204; 1.111 µM): 0.948 ± 0.066
- relative viability (A204; 3.333 µM): 0.936 ± 0.034
- relative viability (A204; 10 µM): 0.836 ± 0.036
- relative viability (SW684; 0.00017 µM): 1.1 ± 0.033
- relative viability (SW684; 0.00051 µM): 1.09 ± 0.025
- relative viability (SW684; 0.00152 µM): 1.09 ± 0.056
- relative viability (SW684; 0.00457 µM): 1.1 ± 0.035
- relative viability (SW684; 0.01372 µM): 1.07 ± 0.0057
- relative viability (SW684; 0.04115 µM): 1.07 ± 0.051
- relative viability (SW684; 0.1235 µM): 1.06 ± 0.061
- relative viability (SW684; 0.3704 µM): 1.08 ± 0.039
- relative viability (SW684; 1.111 µM): 1.1 ± 0.025
- relative viability (SW684; 3.333 µM): 1.06 ± 0.024
- relative viability (SW684; 10 µM): 0.977 ± 0.038
- relative viability (MES-SA; 0.00017 µM): 0.921 ± 0.034
- relative viability (MES-SA; 0.00051 µM): 0.934 ± 0.013
- relative viability (MES-SA; 0.00152 µM): 0.919 ± 0.036
- relative viability (MES-SA; 0.00457 µM): 0.908 ± 0.0097
- relative viability (MES-SA; 0.01372 µM): 0.922 ± 0.026
- relative viability (MES-SA; 0.04115 µM): 0.894 ± 0.028
- relative viability (MES-SA; 0.1235 µM): 0.909 ± 0.052
- relative viability (MES-SA; 0.3704 µM): 0.886 ± 0.029
- relative viability (MES-SA; 1.111 µM): 0.898 ± 0.02
- relative viability (MES-SA; 3.333 µM): 0.864 ± 0.027
- relative viability (MES-SA; 10 µM): 0.827 ± 0.034
- relative viability (VA-ES-BJ; 0.00017 µM): 1.05 ± 0.066
- relative viability (VA-ES-BJ; 0.00051 µM): 1.03 ± 0.019
- relative viability (VA-ES-BJ; 0.00152 µM): 1.02 ± 0.032
- relative viability (VA-ES-BJ; 0.00457 µM): 1.02 ± 0.025
- relative viability (VA-ES-BJ; 0.01372 µM): 1.01 ± 0.032
- relative viability (VA-ES-BJ; 0.04115 µM): 1 ± 0.027
- relative viability (VA-ES-BJ; 0.1235 µM): 0.982 ± 0.026
- relative viability (VA-ES-BJ; 0.3704 µM): 0.97 ± 0.056
- relative viability (VA-ES-BJ; 1.111 µM): 0.972 ± 0.03
- relative viability (VA-ES-BJ; 3.333 µM): 0.942 ± 0.028
- relative viability (VA-ES-BJ; 10 µM): 0.859 ± 0.032
- relative viability (SK-LMS-1; 0.00017 µM): 1.03 ± 0.037
- relative viability (SK-LMS-1; 0.00051 µM): 1.02 ± 0.071
- relative viability (SK-LMS-1; 0.00152 µM): 0.994 ± 0.042
- relative viability (SK-LMS-1; 0.00457 µM): 0.976 ± 0.048
- relative viability (SK-LMS-1; 0.01372 µM): 0.987 ± 0.06
- relative viability (SK-LMS-1; 0.04115 µM): 0.997 ± 0.032
- relative viability (SK-LMS-1; 0.1235 µM): 0.958 ± 0.033
- relative viability (SK-LMS-1; 0.3704 µM): 0.954 ± 0.013
- relative viability (SK-LMS-1; 1.111 µM): 0.969 ± 0.048
- relative viability (SK-LMS-1; 3.333 µM): 0.913 ± 0.017
- relative viability (SK-LMS-1; 10 µM): 0.883 ± 0.047
- relative viability (RD; 0.00017 µM): 1.01 ± 0.066
- relative viability (RD; 0.00051 µM): 1.02 ± 0.038
- relative viability (RD; 0.00152 µM): 1.02 ± 0.053
- relative viability (RD; 0.00457 µM): 1.07 ± 0.036
- relative viability (RD; 0.01372 µM): 1.08 ± 0.042
- relative viability (RD; 0.04115 µM): 1.05 ± 0.073
- relative viability (RD; 0.1235 µM): 1.05 ± 0.075
- relative viability (RD; 0.3704 µM): 1.03 ± 0.047
- relative viability (RD; 1.111 µM): 1.04 ± 0.045
- relative viability (RD; 3.333 µM): 1.04 ± 0.019
- relative viability (RD; 10 µM): 1.06 ± 0.038
- relative viability (KHOS-NP; 0.00017 µM): 1.087 ± 0.0075
- relative viability (KHOS-NP; 0.00051 µM): 1.11 ± 0.023
- relative viability (KHOS-NP; 0.00152 µM): 1.09 ± 0.024
- relative viability (KHOS-NP; 0.00457 µM): 1.07 ± 0.021
- relative viability (KHOS-NP; 0.01372 µM): 1.06 ± 0.019
- relative viability (KHOS-NP; 0.04115 µM): 1.048 ± 0.0026
- relative viability (KHOS-NP; 0.1235 µM): 1.035 ± 0.01
- relative viability (KHOS-NP; 0.3704 µM): 1.01 ± 0.028
- relative viability (KHOS-NP; 1.111 µM): 0.991 ± 0.018
- relative viability (KHOS-NP; 3.333 µM): 0.942 ± 0.045
- relative viability (KHOS-NP; 10 µM): 0.914 ± 0.04
- relative viability (SYO-1; 0.00017 µM): 0.969 ± 0.012
- relative viability (SYO-1; 0.00051 µM): 0.921 ± 0.023
- relative viability (SYO-1; 0.00152 µM): 0.927 ± 0.015
- relative viability (SYO-1; 0.00457 µM): 0.91 ± 0.036
- relative viability (SYO-1; 0.01372 µM): 0.859 ± 0.031
- relative viability (SYO-1; 0.04115 µM): 0.825 ± 0.022
- relative viability (SYO-1; 0.1235 µM): 0.802 ± 0.015
- relative viability (SYO-1; 0.3704 µM): 0.792 ± 0.018
- relative viability (SYO-1; 1.111 µM): 0.752 ± 0.031
- relative viability (SYO-1; 3.333 µM): 0.72 ± 0.034
- relative viability (SYO-1; 10 µM): 0.698 ± 0.041
- relative viability (HS729; 0.00017 µM): 1 ± 0.065
- relative viability (HS729; 0.00051 µM): 0.966 ± 0.12
- relative viability (HS729; 0.00152 µM): 0.937 ± 0.082
- relative viability (HS729; 0.00457 µM): 0.889 ± 0.1
- relative viability (HS729; 0.01372 µM): 0.833 ± 0.11
- relative viability (HS729; 0.04115 µM): 0.885 ± 0.042
- relative viability (HS729; 0.1235 µM): 0.792 ± 0.049
- relative viability (HS729; 0.3704 µM): 0.822 ± 0.013
- relative viability (HS729; 1.111 µM): 0.806 ± 0.035
- relative viability (HS729; 3.333 µM): 0.758 ± 0.051
- relative viability (HS729; 10 µM): 0.751 ± 0.044
- relative viability (SW872; 0.00017 µM): 1.012 ± 0.0074
- relative viability (SW872; 0.00051 µM): 1.03 ± 0.017
- relative viability (SW872; 0.00152 µM): 0.975 ± 0.057
- relative viability (SW872; 0.00457 µM): 0.972 ± 0.043
- relative viability (SW872; 0.01372 µM): 0.971 ± 0.073
- relative viability (SW872; 0.04115 µM): 0.94 ± 0.041
- relative viability (SW872; 0.1235 µM): 0.891 ± 0.015
- relative viability (SW872; 0.3704 µM): 0.911 ± 0.041
- relative viability (SW872; 1.111 µM): 0.901 ± 0.015
- relative viability (SW872; 3.333 µM): 0.902 ± 0.07
- relative viability (SW872; 10 µM): 0.859 ± 0.019
